The results in this text go back to PubChem BioAssay (NCI).

Molecules are shown by their SMILES. Values joined by “and” are separate entries in the source; they are usually repeats but may differ in a detail not shown here. Equal values may be shown once.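 A five-concentration, 48-hour dose response in 96-well plates underlies each endpoint, interpolated linearly between surrounding concentrations. Abbreviation: GI50, concentration required for 50% inhibition of growth. The concentration for full growth arrest is given as TGI.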

Test systems include ACHN renal; MALME-3M melanoma; NCI-H226 lung; UO-31 renal; U251 CNS; HCT-15 colon; CCRF-CEM leukemia; SK-MEL-5 melanoma; MOLT-4 leukemia; SNB-75 CNS.
What all share (assay): NCI anticancer screen, dose series, 48 h

For `CC(C)(C)OC(=O)N(CCCn1c2c(c3ccccc3c1=O)C(=O)c1ccccc1-2)CCN(CCCn1c2c(c3ccccc3c1=O)C(=O)c1ccccc1-2)C(=O)OC(C)(C)C`, the GI50 was 11.2 µM in the experiment on ACHN renal; over 50 µM in the experiment on MALME-3M melanoma; over 50 µM with NCI-H226 lung; over 50 µM in the experiment on UO-31 renal; 15.5 µM in the experiment on U251 CNS; 24.2 µM with HCT-15 colon. Further, the GI50 was 4930 nM with CCRF-CEM leukemia, over 50 µM in the experiment on SK-MEL-5 melanoma and 4 µM with MOLT-4 leukemia. The TGI is 48.9 µM with ACHN renal; over 50 µM with MALME-3M melanoma; over 50 µM in the experiment on NCI-H226 lung; over 50 µM in the experiment with UO-31 renal; over 50 µM in the experiment with U251 CNS; over 50 µM in the experiment on HCT-15 colon. The TGI was over 50 µM in the experiment on CCRF-CEM leukemia, over 50 µM in the experiment on SK-MEL-5 melanoma and 16.1 µM in the experiment with MOLT-4 leukemia.
`CCN(CC)CCNc1ccc(CO)c2sc3ccccc3c(=O)c12`: the GI50 was 4.27 µM and 14.4 µM and 2.33 µM in the experiment on SNB-75 CNS; 2.35 µM and 6.73 µM and 2.58 µM in the experiment on ACHN renal; 1.74 µM in the experiment with NCI-H226 lung; 2.09 µM and 8.51 µM in the experiment with UO-31 renal; 3.97 µM and 12.6 µM in the experiment with U251 CNS; 3.14 µM and 3.32 µM in the experiment with MOLT-4 leukemia. For the same compound, the TGI with SNB-75 CNS is 17.7 µM and 29.1 µM and 9.2 µM; with ACHN renal, 7.94 µM and 24.5 µM and 15.9 µM; in the experiment with NCI-H226 lung it was 4.48 µM and 44.8 µM and 26.1 µM; in the experiment with UO-31 renal, 20.9 µM [middle of 4 runs]; in the experiment on U251 CNS it was 23.7 µM [middle of 4 runs]; with MOLT-4 leukemia, 14.1 µM [middle of 4 runs].
As to `CC(C)[C@H](COC(C)(C)C)N=CN1CSc2ccccc21`, the TGI in the experiment with SNB-75 CNS was 77.1 µM; with ACHN renal, 71.4 µM; in the experiment with NCI-H226 lung it was over 100 µM; with UO-31 renal, over 100 µM; with U251 CNS, over 100 µM; in the experiment on HCT-15 colon, over 100 µM. Further, the TGI was over 100 µM with CCRF-CEM leukemia, 63 µM in the experiment with SK-MEL-5 melanoma and over 100 µM in the experiment with MOLT-4 leukemia.
For `Cc1cc(Cl)ccc1OCC(=O)Oc1c(Cl)c(Cl)c(Cl)c(Cl)c1Cl`, the TGI in the experiment with SNB-75 CNS is 62.6 µM; with ACHN renal, over 100 µM; in the experiment on MALME-3M melanoma it was 45.3 µM; in the experiment with NCI-H226 lung it was 53.8 µM; in the experiment on UO-31 renal it was 32 µM; in the experiment on U251 CNS, 70.4 µM. Further, the TGI in the experiment on HCT-15 colon is 71.7 µM; with SK-MEL-5 melanoma it was 61.9 µM.
Consider `CN1CCN(c2ccc(NC3=C(Cl)C(=O)c4ncccc4C3=O)cc2C(F)(F)F)CC1`, for which the GI50 in the experiment on SNB-75 CNS is 5.44 µM; in the experiment on ACHN renal, 1.48 µM; in the experiment on MALME-3M melanoma it was 1.46 µM; in the experiment with NCI-H226 lung, 13 µM; in the experiment with UO-31 renal, 1.5 µM; in the experiment with U251 CNS it was 4.45 µM. For the same compound, the GI50 in the experiment on HCT-15 colon was 1.39 µM; with SK-MEL-5 melanoma, 3.52 µM; in the experiment with MOLT-4 leukemia, 0.304 µM. Besides, the TGI in the experiment on SNB-75 CNS amounted to 19.8 µM; with ACHN renal it was 2.8 µM; in the experiment on MALME-3M melanoma, 2.83 µM; in the experiment on NCI-H226 lung, 29.9 µM; with UO-31 renal, 2.82 µM; with U251 CNS it was 17 µM. For the same compound, the TGI amounted to 3 µM in the experiment with HCT-15 colon, 13.3 µM in the experiment on SK-MEL-5 melanoma and 2.67 µM with MOLT-4 leukemia.
With `CC(=O)N1C(=O)C(=O)c2cc(Cl)ccc21`, the TGI in the experiment on SNB-75 CNS, in the experiment with ACHN renal, in the experiment with MALME-3M melanoma, in the experiment on NCI-H226 lung, with UO-31 renal and in the experiment on U251 CNS was over 100 µM throughout. In addition, the TGI with HCT-15 colon, with SK-MEL-5 melanoma and with MOLT-4 leukemia was over 100 µM each time.
With `COc1ccc2c3c([nH]c2c1[N+](=O)[O-])C(C)N(C(=O)/C=C/c1ccccc1)CC3` (stereo unspecified), the TGI in the experiment with ACHN renal was over 100 µM; in the experiment on NCI-H226 lung, 41.3 µM; in the experiment with UO-31 renal, over 100 µM; with U251 CNS it was over 100 µM; in the experiment on HCT-15 colon it was over 100 µM; in the experiment with CCRF-CEM leukemia it was over 100 µM. Moreover, in the experiment with MOLT-4 leukemia, the TGI was over 100 µM.
Turning to `CC(=O)c1ccc(NCn2nc(-c3ccccc3O)oc2=S)cc1`, the GI50 is 29.6 µM with ACHN renal; 27.4 µM with NCI-H226 lung; over 100 µM in the experiment with UO-31 renal; 50.8 µM in the experiment on U251 CNS; 23.4 µM with HCT-15 colon; 55.6 µM with SK-MEL-5 melanoma. The GI50 in the experiment with MOLT-4 leukemia was 0.88 µM. Moreover, the TGI was 71.9 µM with ACHN renal; 99.3 µM in the experiment with NCI-H226 lung; over 100 µM with UO-31 renal; over 100 µM with U251 CNS; 49.3 µM with HCT-15 colon; over 100 µM in the experiment on SK-MEL-5 melanoma. Besides, in the experiment on MOLT-4 leukemia, the TGI was over 100 µM.
In the case of `O=c1c2ccccc2c(C=NCCNCCO)c2oc3ccccc3n12`, the GI50 is 3.54 µM in the experiment on ACHN renal; 11.9 µM in the experiment on NCI-H226 lung; 9.58 µM with UO-31 renal; 6.24 µM in the experiment with U251 CNS; 10.1 µM in the experiment with HCT-15 colon; 1470 nM in the experiment on CCRF-CEM leukemia. The GI50 was 7.16 µM with SK-MEL-5 melanoma and 1.73 µM in the experiment with MOLT-4 leukemia. Also, the TGI amounted to 14.9 µM with ACHN renal; 29 µM with NCI-H226 lung; 22.5 µM in the experiment on UO-31 renal; 19.5 µM in the experiment on U251 CNS; 23.9 µM in the experiment on HCT-15 colon; 16.1 µM in the experiment on CCRF-CEM leukemia. The TGI amounted to 20.1 µM in the experiment on SK-MEL-5 melanoma and 11.7 µM in the experiment with MOLT-4 leukemia.
As for `COc1ccccc1NC(=O)N/C(N)=N/c1nc2ccccc2s1`, the GI50 in the experiment on SNB-75 CNS was 0.0556 µM; in the experiment with ACHN renal, 0.327 µM; in the experiment with NCI-H226 lung it was 0.949 µM; in the experiment with UO-31 renal, 0.389 µM; with U251 CNS, 0.0655 µM; with HCT-15 colon, 0.0526 µM. Besides, the figures for the GI50 in the experiment with CCRF-CEM leukemia, in the experiment with SK-MEL-5 melanoma and in the experiment on MOLT-4 leukemia were 111 nM, 0.201 µM and 0.162 µM, respectively. Further, the TGI in the experiment with ACHN renal, in the experiment with NCI-H226 lung, in the experiment on UO-31 renal, in the experiment with U251 CNS, in the experiment on HCT-15 colon and in the experiment with CCRF-CEM leukemia was over 100 µM in each case. Also, the TGI in the experiment on SK-MEL-5 melanoma and in the experiment with MOLT-4 leukemia was over 100 µM throughout.
For `CC(=O)OC1C(O)COC(Oc2c(C)c3c4c(c2O)[C@@H](C)CC[C@@H]4[C@@H](C)C[C@H]3C=C(C)C)C1O` (stereo partly specified), the GI50 in the experiment with ACHN renal was 18.7 µM; in the experiment with MALME-3M melanoma, 15.3 µM; in the experiment with NCI-H226 lung, 24.5 µM; in the experiment on UO-31 renal, 30 µM; with U251 CNS it was 18 µM; in the experiment with HCT-15 colon, 15.2 µM. The GI50 in the experiment on CCRF-CEM leukemia is 7420 nM; with SK-MEL-5 melanoma, 15.3 µM; in the experiment on MOLT-4 leukemia it was 4.89 µM. In addition, the TGI with ACHN renal was 42.5 µM; with MALME-3M melanoma, 30.1 µM; in the experiment on NCI-H226 lung, 64.8 µM; with UO-31 renal, over 100 µM; in the experiment with U251 CNS it was 35 µM; in the experiment with HCT-15 colon, 31.7 µM. In addition, the TGI in the experiment with CCRF-CEM leukemia worked out at 27.4 µM; with SK-MEL-5 melanoma it was 32.4 µM; in the experiment with MOLT-4 leukemia, 28.5 µM.
Turning to `COc1cc2c(c(OC)c1OC)C(=O)c1c-2n(CCCN)c(=O)c2cc([N+](=O)[O-])ccc12`, the GI50 in the experiment with SNB-75 CNS is 1.41 µM; in the experiment on NCI-H226 lung, 19 µM; in the experiment on UO-31 renal it was 1.89 µM; with CCRF-CEM leukemia, 285 nM; in the experiment with SK-MEL-5 melanoma it was 1.53 µM; in the experiment with MOLT-4 leukemia, 8.08 µM. Moreover, the TGI in the experiment with SNB-75 CNS stood at 3.31 µM; in the experiment with NCI-H226 lung it was 40.1 µM; in the experiment with UO-31 renal, 3.57 µM; with CCRF-CEM leukemia, 0.834 µM; in the experiment with SK-MEL-5 melanoma it was 3.24 µM; with MOLT-4 leukemia it was 19.1 µM.
In the case of `CC(=O)C1C(=O)C(=O)N(c2ccc(Cl)cc2C)C1=O` (stereo unspecified), the TGI with ACHN renal, with MALME-3M melanoma, in the experiment on UO-31 renal, in the experiment on U251 CNS, in the experiment on HCT-15 colon and with CCRF-CEM leukemia was over 100 µM throughout. The TGI with SK-MEL-5 melanoma and with MOLT-4 leukemia was over 100 µM throughout.
As to `CCOC(=O)NC(=O)c1cn(-c2ccc(CCOC(=O)CCCCCCCCC(=O)OCCc3ccc(-n4cc(C(=O)NC(=O)OCC)c(=O)[nH]c4=O)cc3)cc2)c(=O)[nH]c1=O`, the TGI in the experiment with ACHN renal, in the experiment on MALME-3M melanoma, with NCI-H226 lung, in the experiment on UO-31 renal, with U251 CNS and with HCT-15 colon was over 100 µM in each case. The TGI with CCRF-CEM leukemia, in the experiment on SK-MEL-5 melanoma and in the experiment with MOLT-4 leukemia was over 100 µM in each case.
As to `Cn1c(-c2c(N)n(Cc3ccc(Cl)cc3)c3nc(C#N)c(C#N)nc23)nc2ccccc21`, the GI50 with ACHN renal was 1.5 µM; in the experiment on UO-31 renal, 5.35 µM; in the experiment on U251 CNS, 3.76 µM; in the experiment on HCT-15 colon it was 4.55 µM; in the experiment on SK-MEL-5 melanoma, 5.24 µM. Further, the TGI is 6.38 µM with ACHN renal; 13.2 µM with UO-31 renal; 13 µM in the experiment with U251 CNS; over 50 µM in the experiment on HCT-15 colon; 16.5 µM in the experiment on SK-MEL-5 melanoma.
For the compound `CC1=C(CC/C(C)=C/CCC2(C)CCC([C@H](C)C(=O)O)OO2)C(C)(C)CCC1` (stereo partly specified) (tested in a mixture with another compound), the TGI in the experiment on SNB-75 CNS, in the experiment on ACHN renal, in the experiment on MALME-3M melanoma, in the experiment with NCI-H226 lung, in the experiment on UO-31 renal and in the experiment with U251 CNS was over 100 µM throughout.
